Measured values taken from article PMC6967409 (Frontiers in Chemistry, 2020).
In brackets after ≈: the same amount, converted by molar mass. Several values for one entry are separate records, joined by “and”; a condition that tells them apart may be missing. Equal values may be shown once. Read-outs that look alike come from different tables or passages of the source.

Tests used:
[1] = test system: P. berghei ANKA GFP-Luc-SMcon sporozoites; assay: P. berghei-luciferase liver stage bioluminescence assay (causal prophylactic mode) in HepG2-CD81 cells; type: cell-based, Plasmodium berghei; details: for Emax: 48 h, read-out: P.berghei-Luciferase Liver Stage Bioluminescence Assay: Maximum measured (%); for inhibition at 10 µM: read-out: P. berghei sporozoites Maximum inhibition %
Summary of the method: (§1)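 HepG2-CD81 cells seeded onto compounds in DMSO, infected with P. berghei luciferase-expressing sporozoites; liver-stage growth read as luciferase bioluminescence after BrightGlo luciferin addition. Cytotoxicity measured in parallel on uninfected HepG2 plates via CellTiterGlo ATP luminescence.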

[2] = test system: Chinese hamster ovarian (CHO) cells; details: read-out: Cytotoxicity EC50 CHO; MTT assay; ref Coertzen et al. (2018); cited from earlier work
P. falciparum Dd2 [3] = test system: P. falciparum Dd2; parameters: method as in Coertzen et al. (2018); details: pLDH, 48 h; ref Coertzen et al. (2018); read-out: Metabolic IC50 Dd2; cited from earlier work
P. falciparum NF54 [4] = test system: P. falciparum NF54; parameters: method as in Coertzen et al. (2018); details: SYBR Green I; ref Coertzen et al. (2018); read-out: Proliferative IC50 NF54; cited from earlier work
P. falciparum K1 [5] = test system: P. falciparum K1; parameters: method as in Coertzen et al. (2018); details: SYBR Green I; ref Coertzen et al. (2018); read-out: Proliferative IC50 K1; cited from earlier work
P. falciparum W2 [6] = test system: P. falciparum W2; parameters: method as in Coertzen et al. (2018); details: SYBR Green I; ref Coertzen et al. (2018); read-out: Proliferative IC50 W2; cited from earlier work
P. falciparum W2 [7] = test system: P. falciparum W2; parameters: method as in Lanteri et al., 2014; details: ref Lanteri et al., 2014; read-out: mean IC50 against W2; cited from earlier work
[8] = test system: Pf CamWT, Cam3.II, CamWTC580Y, Cam3.IIC580Y, Cam3.IIRev; parameters: method as in Lanteri et al., 2014; details: ref Lanteri et al., 2014; read-out: mean IC50 across CamWT, Cam3.II and K13 transfected strains; cited from earlier work
HepG2 cells = assay: HepG2 cytotoxicity bioluminescence assay (CellTiterGlo, ATP); type: cell-based, human; details: for IC50 / HepG2 Cytotoxicity Bioluminescence Assay: Maximum measured (%): two biological replicates listed in one cell
Summary of the method: as §1

[9] = as above; type: cell-based, human; details: human, uninfected HepG2-CD81 cells; for IC50 at 72 h: two biological replicates listed in one cell; for EC50 at 72 h: uninfected HepG2, ATP bioluminescence
Summary of the method: as §1

[10] = test system: P. falciparum NF54 late stage gametocytes (>90% stage IV and V); parameters: method as in Coertzen et al. (2018); details: read-out: Late Stage (LG, Luc 72 h) IC50; >90% stage IV and V gametocytes; ref Coertzen et al. (2018); cited from earlier work
[11] = test system: P. falciparum ARC08-22 (4G); assay: T0 [3H]-hypoxanthine drug susceptibility assay, artemisinin-resistant clone (C580Y); type: cell-based, Plasmodium falciparum; details: preliminary, W2 as comparative sensitive strain
P. falciparum NF54 [12] = test system: P. falciparum NF54; parameters: method as in Coertzen et al. (2018); details: pLDH, 48 h; ref Coertzen et al. (2018); read-out: Metabolic IC50 NF54; cited from earlier work
[13] = test system: P. falciparum PL08-009 (5C); assay: T0 [3H]-hypoxanthine drug susceptibility assay, artemisinin-resistant clone (C580Y); type: cell-based, Plasmodium falciparum; details: preliminary, W2 as comparative sensitive strain
P. falciparum W2 [14] = assay: T0 [3H]-hypoxanthine drug susceptibility assay; type: cell-based; details: Plasmodium falciparum; for IC50: W2, read-out: W2 IC50; for IC90: W2, read-out: W2 IC90
[15] = test system: P. falciparum NF54 early stage gametocytes (>90% stage I–III); parameters: method as in Coertzen et al. (2018); details: read-out: Early Stage (EG, Luc 48 h) IC50; >90% stage I–III gametocytes; ref Coertzen et al. (2018); cited from earlier work
[16] = parameters: method as in Haynes et al., 2006; details: ref Haynes et al., 2006; cited from earlier work
[17] = Cytotoxicity, Cytoselect LDH cytotoxicity assay kit; type: cell-based; details: human, HepG2 cells
Method: (§2) Cytotoxicity (EC50) was determined against Chinese hamster ovarian (CHO) using a 3-(4,5-dimethylthiazol-2-yl)-2,5-diphenyltetrazolium bromide (MTT) assay and hepatocellular carcinoma cells (HepG2) using the Cytoselect LDH cytotoxicity assay kit (Cell Biolabs).

Cytotoxicity, MTT assay = type: cell-based; details: Chinese hamster, CHO cells
Method: as §2

P. falciparum NF54 [18] = assay: Proliferative (SYBR Green I) assay, asexual parasites, 96 h; type: cell-based; details: Plasmodium falciparum, ±SEM
Summary of the method: (§3)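 Synchronized ring-stage (>95%) parasites in human erythrocytes were treated with two-fold dilutions at 37 °C under 90% N2/5% CO2/5% O2, with DMSO <0.1%. SYBR Green I fluorescence was read after 96 h (1% parasitemia, 1% hematocrit). pLDH activity was read after 48 h (1.5–2% parasitemia, 2% hematocrit).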

P. falciparum K1 [19] = assay: as above; type: cell-based; details: Plasmodium falciparum, ±SEM
Summary of the method: as §3

P. falciparum W2 [20] = assay: as above; type: cell-based; details: Plasmodium falciparum, ±SEM
Summary of the method: as §3

P. falciparum Dd2 [21] = assay: Metabolic (parasite LDH) assay, asexual ring stage parasites, 48 h; type: cell-based; details: Plasmodium falciparum, pLDH, Dd2 CQ, pyrimethamine resistant
Summary of the method: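 Two-fold serial dilutions on >95% ring-stage Dd2 parasites (1.5–2% parasitemia, 2% hematocrit) in Albumax II RPMI, final DMSO <0.1%, at 37°C under 90% N2/5% CO2/5% O2. Parasite LDH activity read after 48 h drug exposure for dose-response.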

[22] = test system: P. falciparum NF54 early stage gametocytes (>90% stage I–III); assay: Gametocytocidal luciferase reporter assay, early stage, 48 h; type: cell-based; details: Plasmodium falciparum, NF54, 48 h, read-out: Early Stage (EG, Luc 48 h) IC50
Summary of the method: (§4)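 Luciferase reporter P. falciparum line; gametocyte cultures treated with 50 mM NAG to remove asexual parasites. Early gametocytes (day 5, stage I–III) exposed 48 h to two-fold dilutions; late (day 10, stage IV–V) 72 h to 10-fold dilutions; 2% gametocytemia, 2% hematocrit, 37°C, 90% N2/5% CO2/5% O2.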

[23] = test system: asexual P. falciparum NF54, Dd2, K1, W2; assay: Asexual P. falciparum, metabolic (pLDH) and proliferative (SYBR Green I) platforms; type: cell-based; details: Plasmodium falciparum; read-out: IC50 for drug sensitive NF54 parasites across both assay platforms
Method: Data analysis was performed using GraphPad Prism 7.
The in vitro activities of the new derivatives were determined against drug sensitive NF54 and multi-drug resistant Dd2, K1, and W2 intraerythrocytic asexual P. falciparum malaria parasite strains using both a metabolic (parasite LDH) and a proliferative (SYBR Green I fluorescence) assay readout (Table 1).

P. falciparum NF54 [24] = assay: Metabolic (parasite LDH) assay, asexual ring stage parasites, 48 h; type: cell-based; details: Plasmodium falciparum, pLDH, CQ-sensitive NF54
Summary of the method: as §3

[25] = test system: P. falciparum NF54 late stage gametocytes (>90% stage IV and V); assay: Gametocytocidal luciferase reporter assay, late stage, 72 h; type: cell-based, Plasmodium falciparum
Summary of the method: as §4

[26] = test system: P. falciparum stage III/IV/V and mature stage V (>95% stage V) gametocytes; assay: Stage-specificity and kill kinetics against late stage gametocytes, luciferase reporter line; type: cell-based; details: Plasmodium falciparum, 72 h treatment
Method: Late stage gametocytes, stage III, IV/V (10% stage III, 50% stage IV, 40% stage V population on day 10 post-induction) or mature stage V (>95% stage V on day 13 post-induction) were used to determine the differential stage specificity and kill kinetics (speed-of-action) of the compounds. Dose responses were determined using the luciferase reporter line, exposed to 10-fold serial drug dilutions for 72 h at 37°C under 90% N2, 5% CO2, and 5% O2 atmospheric conditions. […] Additionally, a drug washout step was included by replacing the drug-containing spent medium with fresh media (without drug) followed by a further 24 h incubation prior to measuring luciferase activity. […] Data are the average from a single independent biological experiment with technical triplicates, error bars indicate ±SD.

[27] = Plasmodium berghei, two biological replicates listed in one cell
[28] = Plasmodium berghei, HepG2, 48 h, liver stage, HepG2 host cells, luciferase after 48 h, ±SD, read-out: P. berghei sporozoites IC50
[29] = Plasmodium berghei, two biological replicates listed in one cell, read-out: P.berghei-Luciferase Liver Stage Bioluminescence Assay: IC50

SMILES | Emax [1, 27] | IC50 [1, 28] | IC50 [1, 29] | EC50 [2] | IC50 (P. falciparum Dd2 [3]) | IC50 (P. falciparum NF54 [4]) | IC50 (P. falciparum K1 [5]) | IC50 (P. falciparum W2 [6]) | IC50 (P. falciparum W2 [7]) | IC50 [8] | IC50 at 72 h [9] | EC50 at 72 h [9] | IC50 [10] | susceptibility of ARC08-22 (4G) clone (in words) [11] | IC50 (P. falciparum NF54 [12]) | IC50 (P. falciparum W2 [14]) | IC90 (P. falciparum W2 [14]) | IC50 [15] | also measured
C[C@H]1[C@H](N2CCS(=O)(=O)CC2)O[C@@H]2O[C@@]3(C)CC[C@H]4[C@H](C)CC[C@@H]1[C@@]24OO3 [Artemisone 8, artemisone] | 92.1% | 28 nM | 27.4 nM | > 249000 nM | 2.7 ± 0.3 nM | 1.2 ± 0.4 nM | 1.01 ± 0.19 nM | 1.6 ± 0.4 nM | 1.9 nM | 2.4 nM | > 50000 nM | > 50000 nM | 42.4 ± 3.3 nM | no indication of reduced susceptibility | 3 ± 0.8 nM | 1.69 ± 0.36 nM | 3.42 ± 0.45 nM | 1.94 ± 0.11 nM | inhibition at 10 µM ([1]; Plasmodium berghei): 93.3 ± 1.76%; inhibition of liver stage parasites ([1]; maintained down to 3 μM, 12-point titrations starting from 10 μM and […]): > 75%; IC50 ([1]; read-out: P. berghei sporozoites IC50, liver stage, HepG2 host cells, luciferase after 48 h, ±SD): 28.3 ± 1.27 nM; IC50 ([1]; two biological replicates listed in one cell, listed as 8 Artemisone (GC003), read-out: P.berghei-Luciferase Liver Stage Bioluminescence Assay: IC50): 29.2 nM; HepG2 cytotoxicity IC50 (in words) (HepG2 cells; at 25 μM (artemiside 7) and 50 μM (artemisone 8)): no measurable IC50 values; IC50 (HepG2 cells): > 50000 nM; HepG2 Cytotoxicity Bioluminescence Assay: Maximum measured (%) (HepG2 cells; listed as 8 Artemisone (GC003)): 11.8% and 16.0%; susceptibility of PL08-009 (5C) clone (in words) [13]: no indication of reduced susceptibility
C[C@H]1[C@@H](O)O[C@@H]2O[C@@]3(C)CC[C@H]4[C@H](C)CC[C@@H]1[C@@]24OO3 [DHA 2, dihydroartemisinin] |  |  |  | 25200 nM | 5.7 ± 2 nM | 2.51 ± 0.19 nM | 1.51 ± 0.33 nM | 1.74 ± 0.22 nM | 5.2 nM | 11.2 nM |  |  | 33.7 ± 1.98 nM |  | 0.8 ± 0.1 nM | 4.58 ± 2.54 nM | 10.3 ± 5.76 nM | 43 ± 3.9 nM | 
CC1CCC2C(C)C(NS(N)(=O)=O)OC3OC4(C)CCC1C32OO4 (stereo not shown) [Sulfamide 11] |  |  |  | 56000 ± 4600 nM | 16.9 ± 2.6 nM | 3 ± 1 nM | 1.78 ± 0.26 nM | 2.04 ± 0.11 nM |  |  |  |  | 419 ± 59.5 nM |  | 10.9 ± 3.4 nM | 4.87 ± 0.59 nM | 7.53 ± 0.23 nM | 15 ± 2 nM | water solubility [16]: 294 µg/mL (≈ 811 µM)
C[C@H]1[C@H](N2CCN(C(=O)c3ccc(F)cc3)CC2)O[C@@H]2O[C@@]3(C)CC[C@H]4[C@H](C)CC[C@@H]1[C@@]24OO3 [Compound 28] | 101% | 114 ± 15.6 nM | 103 nM |  |  |  |  |  |  |  | 10200 nM | 8320 nM |  | no indication of reduced susceptibility |  | 0.1 ± 0.03 nM | 0.19 ± 0.02 nM |  | inhibition at 10 µM ([1]; Plasmodium berghei, Conc. 10 μM): 104 ± 4.24%; IC50 ([1]; two biological replicates listed in one cell, listed as 28 (WHN-14), read-out: P.berghei-Luciferase Liver Stage Bioluminescence Assay: IC50): 125 nM; EC50 [17]: 190 nM; EC50 (Cytotoxicity, MTT assay): 190000 nM; IC50 (P. falciparum NF54 [18]): 2.8 ± 0.2 nM; IC50 (P. falciparum K1 [19]): 2.1 ± 1.1 nM; IC50 (P. falciparum W2 [20]): 2.7 ± 0.2 nM; IC50 (P. falciparum Dd2 [21]): 1.5 ± 0.6 nM; IC50 [22]: 19.5 ± 8.5 nM; IC50 [23]: 1 to 2 nM; HepG2 Cytotoxicity Bioluminescence Assay: Maximum measured (%) (HepG2 cells; listed as 28 (WHN-14)): 61.7% and 66.5%; IC50 (HepG2 cells; listed as 28 (WHN-14)): 6440 nM; IC50 (P. falciparum NF54 [24]): 1.06 ± 0.19 nM; IC50 ([25]; Plasmodium falciparum, NF54, 72 h, read-out: Late Stage (LG, Luc 72 h) IC50, >90% stage IV and V gametocytes, ±SEM): 0.4 to 0.7 nM; IC50 ([25]; read-out: Late Stage (LG, Luc 72 h) IC50, >90% stage IV and V gametocytes, ±SEM): 0.6 ± 0.3 nM; IC50 [26]: < 10 nM
